This test addresses β1-4 galactosyltransferase (GalT). The test can be described thus: Inhibiting activity of UDP against GalT reaction on a sugar chain (GlcNAc)-fine gold particle complex, tracked by MALDI-TOF MS. The test is classed as biochemical. Conditions: GlcNAc-Au 50 μM, UDP-Gal 400 μM, four mU GalT, HEPES buffer (10 mM MnCl2, 0.15 M NaCl), 25° C., 60 minutes; from plot of FIG. 8. Here is the method:
100 μL of MHEPES buffer solution (10 mM MnCl2, 0.15 M NaCl) of the sugar chain-fine gold particles (GlcNAc-Au:50 μM) produced in accordance with Example 4 and UDP-Gal (400 μM), was prepared. Four mU of β1-4 galactosyltransferase (GalT) was added to the buffer solution, and the sugar chain elongation reaction was tracked at 25° C. by using MALDI-TOF Mass spectroscopy. The reaction solution was not subjected to centrifugal filtration, but to MALDI-TOF mass spectrometry using 2,5-dihydroxybenzoic acid (DHB) as a matrix (FIG. 6). […] FIG. 7 indicates a plot representing temporal variation in extent of the sugar-chain elongation reaction, which was derived from the spectrum shown in FIG. 6.
100 μL of MHEPES buffer solution (10 mM MnCl2, 0.15 M NaCl) of the sugar chain-fine gold particles (GlcNAc-Au: 50 μM) produced in accordance with Example 4 and UDP-Gal (400 μM), was prepared. Four mU of β1-4 galactosyltransferase (GalT) and UDP (prepared at nine concentration levels in the range of 0-50 μM) was then added to the buffer solution, and the solution was subjected to reaction at 25° C. for 60 minutes.

Consider one compound from patent US20090206245A1, “Mass analysis method using fine metal particles” (Shionogi CO., Ltd, priority 2004, published 2009).

For the compound `O=c1ccn([C@@H]2O[C@H](COP(=O)(O)OP(=O)(O)O)[C@@H](O)[C@H]2O)c(=O)[nH]1` [UDP], the IC50 was 300 µM.
